Here are results for 20 molecules from patent publication US5885987A, “Phenylene derivatives” (Kowa Co., Ltd., priority 1996, dated 1999).

Experiment [1] concerns the target T1, LTD4 receptor (Cavia porcellus, UniProt Q2NNR5).
T1 construct: guinea pig pulmomembranous protein; from tissue; host or cells: guinea pig lung membranes
T1 sequence (Q2NNR5 1-340): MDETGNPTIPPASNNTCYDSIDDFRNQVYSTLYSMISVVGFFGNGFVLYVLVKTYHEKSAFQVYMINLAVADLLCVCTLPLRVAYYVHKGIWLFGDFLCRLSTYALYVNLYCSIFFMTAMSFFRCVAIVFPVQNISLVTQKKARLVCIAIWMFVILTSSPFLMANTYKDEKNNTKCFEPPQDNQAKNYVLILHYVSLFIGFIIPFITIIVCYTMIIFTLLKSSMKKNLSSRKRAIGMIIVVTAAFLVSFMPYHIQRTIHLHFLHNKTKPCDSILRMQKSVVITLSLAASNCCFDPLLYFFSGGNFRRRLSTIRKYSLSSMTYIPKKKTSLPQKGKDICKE
Kind of experiment: LTD4 receptor binding inhibition test ([^3 H]leukotriene D4, guinea pig pulmomembranous protein). The note with it: for Kd: read-out: LTD4 receptor, dissociation constant KD; for inhibition at 10 µM: b: 10 μM, read-out: LTD4 receptor (%), inhibition rate. The essentials: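 Filtration binding with [3H]LTD4 on guinea pig lung membranes; reaction stopped with ice-cold Tris-HCl/NaCl buffer (10 mM/100 mM, pH 7.5), bound radioactivity by scintillation counting. Nonspecific binding defined with 2 μM leukotriene D4. IC50 from dose-response, converted to dissociation constant by Cheng-Prusoff.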

Experiment [2] has as its target T2, H1 receptor (Cavia porcellus, UniProt P31389).
T2 construct: guinea pig cerebromembranous protein; from tissue; host or cells: guinea pig cerebral (brain) membranes
Kind of experiment: H1 receptor binding inhibition test ([^3 H]mepyramin, guinea pig cerebromembranous protein). The note with it: for inhibition at 10 µM: b: 10 μM; for inhibition at 10 µM / inhibition at 100 µM: read-out: H1 receptor (%), inhibition rate; for inhibition at 100 µM: a: 100 μM; for Kd: read-out: H1 receptor, dissociation constant KD. The protocol:
1) H1 Receptor Binding Inhibition Test
An ice-cooled phosphate buffer was added to terminate the reaction, followed by immediate filtration through a Wattman CF/C filter. The filter was washed twice with 20 ml aliquots of the ice-cooled buffer. The radioactivity of the residue was measured by a liquid scintillation counter. From a measurement value obtained without the addition of the test compound and measurements values obtained upon addition of the test compound at various concentrations, the dose-response of the inhibitory action of the test compound was measured and the 50% inhibitory concentration (IC50) was determined. Using the Cheng-Prusoff formula, a dissociation constant was calculated from the IC50. In a binding assay, 10^-4 M R(-)dimethindene was used for the measurement of a nonspecific binding.

Experiment [3] concerns isolated guinea pig ileum (leukotriene D4). Kind of experiment: Anti-LTD4 action (in vitro), inhibition of leukotriene D4-induced contraction of isolated ileum. Type of experiment: cell-based. To be noted: Cavia porcellus; for IC50: isolated guinea pig ileum, leukotriene D4; for inhibition at 10 µM: 0.5 h, 10^-5 M, 30 minutes incubation, 37° C., read-out: Anti-LTD4 action (%), contraction inhibition rate. The protocol:
(§1) Antihistaminic Action and Anti-LTD4 Action (In vitro Tests)
(§2) An isolated guinea pig ileum was cut into about 2 cm lengths. Each ileum piece was suspended in a 20-ml container filled with the Krebs buffer. An isotonic contractive response by histamine or leukotriene D4 was recorded on a recorder. The Krebs buffer was controlled at 37° C., through which a mixed gas (95%O2 -5%CO2) was bubbled. First, histamine or leukotriene D4 was added to an organ bath to measure its dose-response. After the ileum piece was washed several times with the buffer, a test compound (will be identified by its example number; this will apply likewise hereinafter) of a predetermined specific concentration was added. Subsequent to incubation for 30 minutes, the dose-response of histamine or leukotriene D4 was measured again. Incidentally, in Table 7, the values (%) indicate contraction inhibition rate at 10^-5 M, while the values in parentheses show pD'2 values in the case of antihistaminic action and IC50 values in the case of anti-LTD4 action.

Experiment [4] deals with T3, isolated guinea pig ileum (histamine) (Cavia porcellus, UniProt P31389).
T3 construct: An isolated guinea pig ileum was cut into about 2 cm lengths; from tissue; host or cells: isolated guinea pig ileum
Kind of experiment: Antihistaminic action (in vitro), inhibition of histamine-induced contraction of isolated ileum. Type of experiment: cell-based. To be noted: for inhibition at 10 µM: 10^-5 M, 30 minutes incubation, 37° C., read-out: Antihistaminic (%), contraction inhibition rate; for pD'2 (antihistaminic action): isolated guinea pig ileum, histamine, 30 min. The protocol: as §1, §2

In experiment [5] the test system is leukotriene D4. Kind of experiment: Anti-LTD4 action in vivo, Evans Blue transudation in back skin after intracutaneous leukotriene D4. On the set-up: species or system male Hartley guinea pig. To be noted: Cavia porcellus, po, 1 h; orally 10 mg/kg, one hour before; leukotriene D4 0.5 μg/ml, 0.1 ml intracutaneously; read-out: Anti-LTD4 action (%), inhibition rate. The protocol: (§3) Antihistaminic Action and Anti-LTD4 Action (In vivo Tests)
(§4) After the hair on the back of a male Hartley guinea pig was cut off, a test compound was orally administered at 10 mg/kg. One hour later, 5% Evans Blue solution was intravenously administered at 1 ml/kg and immediately after that, a 0.3 μg/ml solution of histamine and a 0.5 μg/ml solution of leukotriene D4 were intracutaneously administered each in an amount of 0.1 ml to the back. Thirty minutes later, the guinea pig was sacrificed under exsanguination, the skin was cut off, and the transudated color was quantitated by extraction. To a control, 0.5% CMC (carboxylmethylcellulose) was orally administered and the subsequent procedures were repeated likewise. From the difference in the amount of the transudated color between the control and the group administered with the test compound, an inhibition rate was calculated.

Experiment [6] relates to histamine (H1). Kind of experiment: Antihistaminic (anti-H1) action in vivo, Evans Blue transudation in back skin after intracutaneous histamine. On the set-up: species or system male Hartley guinea pig. To be noted: orally 10 mg/kg, one hour before; histamine 0.3 μg/ml, 0.1 ml intracutaneously. The protocol: as §3, §4

T3 sequence (P31389 whole entry): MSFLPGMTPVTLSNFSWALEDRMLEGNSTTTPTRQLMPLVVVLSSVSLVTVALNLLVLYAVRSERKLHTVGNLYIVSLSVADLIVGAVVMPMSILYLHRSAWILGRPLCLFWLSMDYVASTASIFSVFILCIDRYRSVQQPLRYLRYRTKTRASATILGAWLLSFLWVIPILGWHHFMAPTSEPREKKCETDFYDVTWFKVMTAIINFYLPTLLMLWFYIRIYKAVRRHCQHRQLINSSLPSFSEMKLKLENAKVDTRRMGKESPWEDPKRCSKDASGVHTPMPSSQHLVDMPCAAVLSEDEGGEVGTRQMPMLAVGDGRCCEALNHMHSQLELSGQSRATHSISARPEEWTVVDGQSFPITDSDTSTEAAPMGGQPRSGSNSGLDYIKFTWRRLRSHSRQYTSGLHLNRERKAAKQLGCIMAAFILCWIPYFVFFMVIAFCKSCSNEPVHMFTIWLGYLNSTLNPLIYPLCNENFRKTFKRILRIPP
T2 sequence (P31389 whole entry): as above

Turning to `CN(Cc1cccc(OCc2ccc3ccccc3n2)c1)c1ccc2c(c1)SCC(=O)N2C` [96(b), 4-methyl-7-[N-methyl-N-(3-(2-quinolinylmethoxy)benzyl)amino]-3,4-dihydro-2H-1,4-benzothiazin-3-one], in experiment [1], the Kd turned out to be 315 nM. For the same molecule, the inhibition at 10 µM in experiment [2] turned out to be 14%; in experiment [4], 98%. The same molecule yielded an IC50 in experiment [3] of 120 nM. In experiment [4], the “pD'2 (antihistaminic action)” value was found to be 6.17.

As for `O=C1CCc2cc(OCc3cccc(OCc4ccc5ccccc5n4)c3)ccc2N1` [Example 6], the Kd in experiment [1] stood at 81.4 nM. Besides, the inhibition at 10 µM stood at 18% in experiment [2], 98% in experiment [3] and 37% in experiment [4]. In experiment [3], the IC50 was found to be 460 nM. Besides, the inhibition in vivo at 10 mg/kg in experiment [5] stood at 12%.

As for `O=C1CSc2cc(OCc3cccc(OCc4ccc5ccccc5n4)c3)ccc2N1` [Example 10, 7-[3-(2-Quinolinylmethoxy)benzyloxy]-3,4-dihydro-2H-1,4-benzothiazin-3-one], the Kd in experiment [1] amounted to 12.5 nM. The inhibition at 100 µM in experiment [2] stood at 50%. Moreover, the “Anti-H1 action (%), inhibition rate” value in experiment [6] stood at 36%. The inhibition in vivo at 10 mg/kg in experiment [5] amounted to 32%.

As to `O=C1CSc2cc(OCc3cccc(OCc4ncc5ccccc5n4)c3)ccc2N1` [Example 33, 7[3-(2-quinazolinylmethoxyl)benzyloxy]-3,4-dihydro-2H-1,4-benzothiazin-3-one], the Kd in experiment [1] worked out at 9.7 nM. The inhibition at 100 µM in experiment [2] is 46%. In experiment [3], the inhibition at 10 µM came out at 100% and half-maximal inhibition (IC50) was put at 130 nM. Also, in experiment [4], the inhibition at 10 µM was determined as 65% and the “pD'2 (antihistaminic action)” value turned out to be 5.25. Besides, in experiment [5], the inhibition in vivo at 10 mg/kg turned out to be 40%.

Consider `O=C1CCc2ccc(OCc3ccc(OCc4ncc5ccccc5n4)cc3)cc2N1` [Example 35, 7-[4-(2-quinazolinylmethoxy)benzyloxy]-1,2,3,4-tetrahydroquinolin-2-one], for which the Kd in experiment [1] is 209 nM; in experiment [2], 87900 nM. Besides, the inhibition at 10 µM in experiment [3] worked out at 87%; in experiment [4], 16%. For the same molecule, the IC50 in experiment [3] was 1700 nM. In addition, in experiment [5], the inhibition in vivo at 10 mg/kg worked out at 11%.

Take `Cc1ccc(OCc2ccc(OCc3nc4ccccc4n3C)cc2)c2c1NC(=O)C2(C)C` [Example 39, 4-[4-(N-methylbenzimidazol-2-yl-methoxy)benzyloxy)-3,3,7-trimethyl-2,3-hydro-1H-indol-2-one]: the Ki in experiment [1] (read-out: LTD4 receptor, dissociation constant KD (converted)) is 408 nM. Besides, in experiment [2], the Kd came out at 37400 nM. Also, in experiment [3], the inhibition at 10 µM is 98% and half-maximal inhibition (IC50) was put at 440 nM. In experiment [4], the inhibition at 10 µM was found to be 100% and the “pD'2 (antihistaminic action)” value is given as 6.42.

As for `O=C1CS(=O)(=O)c2cc(OCc3cccc(OCc4nc5ccccc5s4)c3)ccc2N1` [Example 78, 7-[3-(2-Benzothiazolylmethoxy)benzyloxy]-3,4-dihydro-2H-1,4-benzothiazin-3-one 1,1-dioxide], the Kd in experiment [1] was determined as 12600 nM. For the same molecule, the inhibition at 100 µM in experiment [2] was determined as 29%. Moreover, in experiment [5], the inhibition in vivo at 10 mg/kg amounted to 32%.

`O=C1CCCc2cc(OCc3cccc(OCc4ncc5ccccc5n4)c3)ccc2N1` [Example 82, 7-[3-(2-quinazolinylmethoxy)benzyloxy]-2,3,4,5-tetrahydro-1H-benz[b]azepin-2-one]: the Kd in experiment [1] came out at 60 nM. Besides, the inhibition at 10 µM in experiment [2] was 5%.

Take `Cn1c(COc2cccc(COc3ccc4c(c3)CCCC(=O)N4)c2)nc2ccccc21` [Example 83]: the Kd in experiment [1] stood at 310 nM. The inhibition at 10 µM in experiment [2] worked out at 0%.

For the molecule `O=C1NCCCc2cc(OCc3cccc(OCc4ccc5ccccc5n4)c3)ccc21` [Example 84, 7-[3-(2-quinolinylmethoxy)benzyloxy]-2,3,4,5-tetrahydro-1H-benz[c]azepin-1-one], the Kd in experiment [1] was 26 nM; in experiment [2], 66400 nM.

Regarding `O=C1NCCCc2cc(OCc3ccc(OCc4ccc5ccccc5n4)cc3)ccc21` [Example 85, 7-[4-(2-quinolinylmethoxy)benzyloxy]-2,3,4,5-tetrahydro-1H-benz[c]azepin-1-one], the Kd in experiment [1] was determined as 115 nM; in experiment [2], 53100 nM.

`O=C1NCCCc2cc(OCc3cccc(OCc4ncc5ccccc5n4)c3)ccc21` [Example 86, 7-[3-(2-quinazolinylmethoxy)benzyloxy]-2,3,4,5-tetrahydro-1H-benz[c]azepin-1-one]: the Kd in experiment [1] stood at 92.8 nM. For the same molecule, the inhibition at 10 µM in experiment [2] worked out at 9%.

Consider `O=C1CCCc2cc(OCc3cccc(OCc4ccc5ccccc5n4)c3)ccc21` [Example 89, 6-[3-(2-quinolinylmethoxy)benzyloxy]-1-tetralone], for which, in experiment [1], the Kd worked out at 41.3 nM. Also, the inhibition at 10 µM in experiment [2] is 6%. In experiment [3], the IC50 came to 240 nM. The “pD'2 (antihistaminic action)” value in experiment [4] is listed as 5.09.

For the molecule `O=C1CCCc2cc(OCc3cccc(OCc4ncc5ccccc5n4)c3)ccc21` [Example 90, 6-[3-(2-quinazolinylmethoxy)benzyloxy]-1-tetralone], the Kd in experiment [1] is 12.9 nM. The inhibition at 10 µM in experiment [2] turned out to be 8%.

On to `O=C1CSc2cc(N=Cc3cccc(OCc4ccc5ccccc5n4)c3)ccc2N1` [Example 91, 7-[3-(2-quinolinylmethoxy)benzylidenamino]-3,4-dihydro-2H-1,4-benzothiazin-3-one], for which the inhibition at 10 µM in experiment [1] was found to be 37%. In addition, the Kd in experiment [2] was 120 nM.

As for `O=C1CSc2cc(N=Cc3ccc(OCc4ccc5ccccc5n4)cc3)ccc2N1` [Example 92, 7-[4-(2-quinolinylmethoxy)benzylidenamino]-3,4-dihydro-2H-1,4-benzothiazin-3-one], in experiment [1], the inhibition at 10 µM amounted to 0%. Also, in experiment [2], the Kd was 120 nM.

Turning to `O=C1CSc2c(N=Cc3cccc(OCc4ccc5ccccc5n4)c3)cccc2N1` [Example 93, 8-[3-(2-quinolinylmethoxy)benzylidenamino]-3,4-dihydro-2H-1,4-benzothiazin-3-one], the Kd in experiment [1] was 1510 nM. Further, the inhibition at 10 µM in experiment [2] came to 38%.

In the case of `O=C1CSc2cc(NCc3cccc(OCc4ccc5ccccc5n4)c3)ccc2N1` [Example 94, 7-[3-(2-quinolinylmethoxy)benzylamino]-3,4-dihydro-2H-1,4-benzothiazin-3-one], the Kd in experiment [1] was determined as 315 nM. The inhibition at 10 µM in experiment [2] was determined as 37%.

In the case of `O=C1CSc2c(NCc3cccc(OCc4ccc5ccccc5n4)c3)cccc2N1` [Example 95, 8-[3-(2-quinolinylmethoxy)benzylamino]-3,4-dihydro-2H-1,4-benzothiazin-3-one], the Kd in experiment [1] was 608 nM. In addition, in experiment [2], the inhibition at 10 µM came to 33%.

Consider `CN1C(=O)CSc2c(NCc3cccc(OCc4ccc5ccccc5n4)c3)cccc21` [Example 97, 4-methyl-8-[3-(2-quinolinylmethoxy)benzylamino]-3,4-dihydro-2H-1,4-benzothiazin-3-one], for which, in experiment [1], the Kd came out at 681 nM. The inhibition at 10 µM in experiment [2] was found to be 7%.

What is called Kd is the concentration at which binding is half-saturated. For orientation: inhibition means the percentage by which the read-out fell short of the control. The term IC50 denotes the point on the concentration scale where inhibition reaches its midpoint. Lower therefore signals greater potency.
